The values below come from patent US20110318768A1, “METHOD FOR DETERMINING SENSITIVITY OF TUMOR CELLS TO TYROSINE KINASE INHIBITOR AND COMPUTER PROGRAM PRODUCT” (SYSMEX CORPORATION, priority 2010, published 2011).

The test system of assay [1] is tyrosine kinase in cell membrane fraction of UACC893. Briefly: Tyrosine kinase activity inhibition rate in cell membrane fraction (Poly-Glu4-Tyr substrate). The format is biochemical. The conditions noted are these: for Inhibition rate: UACC893, 25 μM kinase inhibitor, 25 μM ATP. A digest of the protocol: (§1)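 Membrane fractions (1% NP-40 extracts after NP-40-free washes) were incubated with inhibitor at room temperature for 10 min, then reacted on immobilized biotin-Poly-Glu4-Tyr at 37 °C for 60 min. Final: 5 μg/ml protein, 25 μM ATP, 25 μM inhibitor, 20 mM MgCl2, 1 mM MnCl2, pH 7.4. Phosphotyrosine detected by HRP anti-pTyr chemiluminescence.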

Assay [2] concerns tyrosine kinase in cell membrane fraction of T47D. The assay is described as above. Type of assay: biochemical. The conditions noted are these: 25 μM kinase inhibitor, 25 μM ATP. A digest of the protocol:
as §1

Assay [3] concerns tyrosine kinase in cell membrane fraction of BT-549. The description is as above. The format is biochemical. The conditions noted are these: for Inhibition rate: 25 μM kinase inhibitor, 25 μM ATP. A digest of the protocol: as §1
The subject of assay [4] is tyrosine kinase in cell membrane fraction of HCC1569. Described as above. Type of assay: biochemical. The conditions noted are these: for Inhibition rate: 25 μM kinase inhibitor, 25 μM ATP. A digest of the protocol:
as §1

Assay [5] relates to tyrosine kinase in cell membrane fraction of BT-474. The description is as above. The conditions noted are these: for Inhibition rate: 25 μM kinase inhibitor, 25 μM ATP. Type of assay: biochemical. The procedure, abridged: as §1
The subject of assay [6] is tyrosine kinase in cell membrane fraction of HCC1954. Described as above. The conditions noted are these: for Inhibition rate: 25 μM kinase inhibitor, 25 μM ATP. The format is biochemical. The procedure, abridged: as §1
The subject of assay [7] is tyrosine kinase in cell membrane fraction of MDA-MB-468. The description is as above. Type of assay: biochemical. The conditions noted are these: for Inhibition rate: 25 μM kinase inhibitor, 25 μM ATP. A digest of the protocol: as §1
Assay [8] relates to tyrosine kinase in cell membrane fraction of CAMA-1. The description is as above. Type of assay: biochemical. The conditions noted are these: for Inhibition rate: 25 μM kinase inhibitor, 25 μM ATP. The procedure, abridged:
as §1

In assay [9] the test system is tyrosine kinase in cell membrane fraction of ZR-75-30. The description is as above. The format is biochemical. The conditions noted are these: for Inhibition rate: 25 μM kinase inhibitor, 25 μM ATP. The procedure, abridged: as §1
The test system of assay [10] is tyrosine kinase in cell membrane fraction of HCC1937. The assay is described as above. Type of assay: biochemical. The conditions noted are these: for Inhibition rate: 25 μM kinase inhibitor, 25 μM ATP. A digest of the protocol:
as §1

Assay [11] relates to tyrosine kinase in cell membrane fraction of HCC1419. The description is as above. The conditions noted are these: for Inhibition rate: 25 μM kinase inhibitor, 25 μM ATP. The format is biochemical. A digest of the protocol: as §1
In assay [12] the test system is tyrosine kinase of SK-Br-3. The conditions noted are these: US 2011027809; cited from earlier work.

For the molecule `Cc1cc(F)c(Nc2ncnc3cc(OCc4ccccc4)ccc23)cc1O.Cl` [Inhibitor 8], the Inhibition rate in assay [1] came to 3.3%; in assay [2] it was 38.1%; in assay [3], 5.1%; in assay [4], 15.5%; in assay [5], 18.0%; in assay [6], 4.1%. Further, the Inhibition rate in [7] is recorded as 7.1%; in [8], 8.1%; in assay [9], 10.1%; in [10], 11.1%; in assay [11], 14.7%.
`CN1CCC(Nc2ncc3ncnc(Nc4ccc(F)c(Cl)c4)c3n2)CC1` [Inhibitor 2]: the Inhibition rate in [1] was 4.1%; in [2], 7.7%; in [3], 21.7%; in assay [4], 25.0%; in assay [5], 10.5%; in assay [6], 19.7%. Besides, the Inhibition rate is given as 52.1% in [7]; −3.4% in [8]; 4.4% in assay [9]; 28.1% in assay [10]; 6.2% in assay [11].
On to `COc1cc2ncnc(Nc3ccc(OCc4ccccc4)cc3)c2cc1OC` [Inhibitor 3, 4-(4-benzyloxyanilino)-6,7-dimethoxyquinazoline], for which the Inhibition rate in assay [1] was 22.9%; in assay [2], 30.2%; in assay [3], 59.8%; in [4] it was 42.3%; in assay [5], 15.1%; in assay [6] it was 31.8%. The Inhibition rate in assay [7] was 76.9%; in assay [8] it was 16.7%; in assay [9], 37.2%; in assay [10] it was 24.1%; in assay [11], 43.3%.
On to `COc1cc2ncnc(Nc3cccc(Cl)c3)c2cc1OC` [Inhibitor 1], for which the Inhibition rate in assay [1] was 21.2%; in [2], 29.1%; in [3] it was 52.9%; in assay [4] it was 44.7%; in assay [5], 26.0%; in assay [6] it was 39.4%. The Inhibition rate in assay [7] is on record as 77.4%; in assay [8], 14.3%; in assay [9], 20.1%; in assay [10] it was 46.0%; in assay [11], 34.9%.
Regarding `Cc1[nH]c(/C=C2\C(=O)Nc3ccc(S(=O)(=O)N(C)c4cccc(Cl)c4)cc32)c(C)c1C(=O)N1CCN(C)CC1` [Inhibitor 9], the Inhibition rate was 56.9% in assay [1]; 42.5% in assay [2]; 81.4% in [3]; 67.0% in assay [4]; 54.6% in assay [5]; 65.7% in [6]. In addition, the Inhibition rate in assay [7] came to 65.0%; in [8] it was 60.2%; in [9] it was 65.1%; in [10], 52.6%; in assay [11], 70.7%.
Regarding `COc1cc2c(cc1OC)-c1[nH]nc(Nc3cccc(F)c3)c1C2` [Inhibitor 6], the Inhibition rate in assay [1] amounted to 28.0%; in assay [2], 37.5%; in assay [3] it was 50.1%; in assay [4] it was 57.8%; in [5], 30.7%; in assay [6], 41.5%. Moreover, the Inhibition rate in assay [7] turned out to be 1.4%; in assay [8] it was 15.9%; in assay [9], 27.0%; in assay [10], 41.8%; in assay [11], 33.5%.
`CN(C)c1cc2c(Nc3ccc4c(cnn4Cc4ccccc4)c3)ncnc2cn1` [Inhibitor 4, N4-(1-benzyl-1H-indazol-5-yl)-N6,N6-dimethyl-pyrido-[3,4-d]-pyrimidine-4,6-diamine]: the Inhibition rate in [1] was −3.1%; in assay [2] it was 27.0%; in assay [3], 48.8%; in assay [4], 37.9%; in [5], 24.6%; in assay [6], 23.2%. Besides, the Inhibition rate in assay [7] was 71.6%; in assay [8] it was 7.3%; in assay [9], 20.9%; in [10], 17.9%; in assay [11], 23.8%.
For `CCCNC(=O)Nc1ccc(Oc2ncnc3cc(OC)c(OC)cc23)cc1Cl` [Inhibitor 7], the Inhibition rate in [1] amounted to 23.9%; in assay [2], 22.0%; in [3] it was 24.0%; in assay [4] it was 16.6%; in assay [5] it was 30.3%; in assay [6], 17.6%. The Inhibition rate in assay [7] came out at 18.5%; in assay [8], 3.4%; in [9] it was 18.5%; in assay [10] it was 17.3%; in assay [11], 28.4%.
As for `CS(=O)(=O)CCNCc1nc(-c2ccc3ncnc(Nc4ccc(OCc5cccc(F)c5)c(Cl)c4)c3c2)cs1.Cl.Cl` [Inhibitor 5, N-[3-chloro-4-[(3-fluorophenyl)methoxy]phenyl]-6-[2-[[[2-(methylsulfonyl)ethyl]amino]methyl]-4-thiazolyl]-4-quinazolineamine dihydrochloride], the Inhibition rate in assay [1] amounted to 48.4%; in assay [2], 50.9%; in assay [3] it was 68.8%; in assay [4] it was 60.7%; in assay [5], 42.7%; in assay [6] it was 59.5%. Moreover, the Inhibition rate in assay [7] was 75.4%; in assay [8], 48.6%; in assay [9], 64.4%; in assay [10], 42.3%; in [11], 63.6%.
In the case of `COc1cc2ncnc(Nc3ccc(Oc4ccccc4)cc3)c2cc1OC` [Inhibitor 10, 4-(4′-phenoxyanilino)-6,7-dimethoxyquinazoline], the “tyrosine kinase activity inhibitory effects caused by the Src inhibitor” value in assay [12] is recorded as “high”. The Inhibition rate in assay [1] is given as 25.6%; in assay [2] it was 42.3%; in assay [3], 60.6%; in assay [4], 71.3%; in assay [5] it was 37.6%; in [6] it was 46.5%. The Inhibition rate in assay [7] is 81.0%; in assay [8] it was 34.6%; in assay [9], 37.3%; in assay [10], 50.1%; in assay [11], 36.3%. Moreover, the “Example 1 Inhibitory capacity of Src inhibitor” value in assay [1] (UACC-893) is on record as “low (the term “low” means a cell line whose inhibition rate of the Src inhibitor is lower than the threshold value (=43.4%))”; in assay [3], “high (the term “high” means a cell line whose inhibition rate of the Src inhibitor is more than the threshold value)”; in [4] it was “high (the term “high” means a cell line whose inhibition rate of the Src inhibitor is more than the threshold value)”; in assay [5], “low (the term “low” means a cell line whose inhibition rate of the Src inhibitor is lower than the threshold value (=43.4%))”; in assay [6], “high (the term “high” means a cell line whose inhibition rate of the Src inhibitor is more than the threshold value)”; in [7], “high (the term “high” means a cell line whose inhibition rate of the Src inhibitor is more than the threshold value)”. Also, the “Example 1 Inhibitory capacity of Src inhibitor” value is reported as “low (the term “low” means a cell line whose inhibition rate of the Src inhibitor is lower than the threshold value (=43.4%))” in assay [8], “low (the term “low” means a cell line whose inhibition rate of the Src inhibitor is lower than the threshold value (=43.4%))” in [9], “high (the term “high” means a cell line whose inhibition rate of the Src inhibitor is more than the threshold value)” in [10] and “low (the term “low” means a cell line whose inhibition rate of the Src inhibitor is lower than the threshold value (=43.4%))” in [11].
